Experimental data reported in patent US20140031278A1, “Novel Glucagon Analogues” (NOVO NORDISK A/S, priority 2011, published 2014).
*1 amine or outer side, *2 acyl side, *3 side chain or, on linkers, in order; H or OH if unused. Where a SMILES comes first, the peptide text is derived from it. Side-chain parts run from the residue outwards. γGlu = O=C(O)[C@H](CCC(=O)[*:2])N[*:1]

Target: T1, glucagon receptor (Homo sapiens, UniProt P47871)
T1 construct: expressed in transfected cells
Assay: Assay (I) Glucagon activity (cAMP biosensor, FLIPR)
Type: cell-based
Conditions: HEK-293 cells with cloned glucagon receptor and cAMP biosensor; end point after 6 minutes
Method in brief: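 HEK-293 cells expressing glucagon receptor with membrane cAMP biosensor (ACTOne), calcium-dye loaded with probenecid and a PDE inhibitor.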

T1 sequence (P47871 26-477): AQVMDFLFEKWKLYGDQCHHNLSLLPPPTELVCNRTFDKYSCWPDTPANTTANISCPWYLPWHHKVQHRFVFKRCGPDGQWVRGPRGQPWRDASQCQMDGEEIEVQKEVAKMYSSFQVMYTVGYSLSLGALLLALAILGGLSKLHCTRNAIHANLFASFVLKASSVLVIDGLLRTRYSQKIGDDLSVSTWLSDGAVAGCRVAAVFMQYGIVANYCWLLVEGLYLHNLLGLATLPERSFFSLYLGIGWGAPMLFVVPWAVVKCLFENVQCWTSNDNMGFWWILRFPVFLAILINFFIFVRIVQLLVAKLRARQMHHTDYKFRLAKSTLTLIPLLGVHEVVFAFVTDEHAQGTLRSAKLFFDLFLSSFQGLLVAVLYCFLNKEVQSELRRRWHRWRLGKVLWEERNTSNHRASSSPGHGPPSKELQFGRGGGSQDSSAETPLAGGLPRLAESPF

Row | Compound | EC50 [pM]
1 | CC(=O)N[C@@H](CCC(=O)N[C@@H](CCC(=O)N[C@@H](CCC(=O)N[C@@H](CCC(=O)NCCCC[C@H](NC(=O)[C@@H](NC(=O)[C@H](Cc1ccccc1)NC(=O)[C@H](CC(=O)O)NC(=O)[C@H](CCC(N)=O)NC(=O)[C@H](C)NC(=O)[C@H](CCCNC(=N)N)NC(=O)[C@H](CCCNC(=N)N)NC(=O)[C@@H](NC(=O)[C@H](CCC(=O)O)NC(=O)[C@H](CC(C)C)NC(=O)[C@H](Cc1ccc(O)cc1)NC(=O)[C@H](CCCCN)NC(=O)[C@H](CO)NC(=O)[C@H](Cc1ccc(O)cc1)NC(=O)[C@H](CC(=O)O)NC(=O)[C@H](CO)NC(=O)[C@@H](NC(=O)[C@H](Cc1ccccc1)NC(=O)[C@@H](NC(=O)CNC(=O)[C@H](Cc1c[nH]cn1)NC(=O)[C@H](CO)NC(=O)[C@@H](N)Cc1c[nH]cn1)[C@@H](C)O)[C@@H](C)O)[C@@H](C)O)C(C)C)C(=O)N[C@@H](Cc1c[nH]c2ccccc12)C(=O)N[C@@H](CC(C)C)C(=O)N[C@@H](CC(C)C)C(=O)N[C@@H](CO)C(=O)N[C@H](C(=O)O)[C@@H](C)O)C(=O)O)C(=O)O)C(=O)O)C(=O)O [Example 31, N^ε24-[(4S)-4-[[(4S)-4-[[(4S)-4-[[(4S)-4-acetamido-4-carboxybutanoyl]amino]-4-carboxybutanoyl]amino]-4-carboxybutanoyl]amino]-4-carboxybutanoyl]-[His3,Glu15,Thr16,Lys24,Leu27,Ser28]-Glucagon] (H-HSHGTFTSDYSKYLETRRAQDFVK([γGlu-γGlu-γGlu-γGlu-Ac])WLLST-OH) | 13
2 | CC(=O)N[C@@H](CCC(=O)N[C@@H](CCC(=O)N[C@@H](CCC(=O)N[C@@H](CCC(=O)NCCCC[C@H](NC(=O)[C@@H](NC(=O)[C@H](Cc1ccccc1)NC(=O)[C@H](CC(=O)O)NC(=O)[C@H](CCC(N)=O)NC(=O)[C@H](C)NC(=O)[C@H](CCCNC(=N)N)NC(=O)[C@H](CCCNC(=N)N)NC(=O)[C@@H](NC(=O)[C@H](CC(=O)O)NC(=O)[C@H](CC(C)C)NC(=O)[C@H](Cc1ccc(O)cc1)NC(=O)[C@H](CCCCN)NC(=O)[C@H](CO)NC(=O)[C@H](Cc1ccc(O)cc1)NC(=O)[C@H](CC(=O)O)NC(=O)[C@H](CO)NC(=O)[C@@H](NC(=O)[C@H](Cc1ccccc1)NC(=O)[C@@H](NC(=O)CNC(=O)[C@H](Cc1c[nH]cn1)NC(=O)[C@H](CO)NC(=O)[C@@H](N)Cc1c[nH]cn1)[C@@H](C)O)[C@@H](C)O)[C@@H](C)O)C(C)C)C(=O)N[C@@H](Cc1c[nH]c2ccccc12)C(=O)N[C@@H](CC(C)C)C(=O)N[C@@H](CC(C)C)C(=O)N[C@@H](CO)C(=O)N[C@H](C(=O)O)[C@@H](C)O)C(=O)O)C(=O)O)C(=O)O)C(=O)O [Example 32, N^ε24-[(4S)-4-[[(4S)-4-[[(4S)-4-[[(4S)-4-acetamido-4-carboxybutanoyl]amino]-4-carboxybutanoyl]amino]-4-carboxybutanoyl]amino]-4-carboxybutanoyl]-[His3,Thr16,Lys24,Leu27,Ser28]-Glucagon] (H-HSHGTFTSDYSKYLDTRRAQDFVK([γGlu-γGlu-γGlu-γGlu-Ac])WLLST-OH) | 9
3 | CC(C)C[C@H](NC(=O)[C@H](Cc1c[nH]c2ccccc12)NC(=O)[C@H](CCCCNC(=O)CC[C@H](NC(=O)CC[C@H](NC(=O)CC[C@H](NC(=O)CC[C@H](N)C(=O)O)C(=O)O)C(=O)O)C(=O)O)NC(=O)[C@@H](NC(=O)[C@H](Cc1ccccc1)NC(=O)[C@H](CC(=O)O)NC(=O)[C@H](CCC(N)=O)NC(=O)[C@H](C)NC(=O)[C@H](CCCNC(=N)N)NC(=O)[C@H](CCCNC(=N)N)NC(=O)[C@@H](NC(=O)[C@H](CC(=O)O)NC(=O)[C@H](CC(C)C)NC(=O)[C@H](Cc1ccc(O)cc1)NC(=O)[C@H](CCCCN)NC(=O)[C@H](CO)NC(=O)[C@H](Cc1ccc(O)cc1)NC(=O)[C@H](CC(=O)O)NC(=O)[C@H](CO)NC(=O)[C@@H](NC(=O)[C@H](Cc1ccccc1)NC(=O)[C@@H](NC(=O)CNC(=O)[C@H](Cc1c[nH]cn1)NC(=O)[C@H](CO)NC(=O)[C@@H](N)Cc1c[nH]cn1)[C@@H](C)O)[C@@H](C)O)[C@@H](C)O)C(C)C)C(=O)N[C@@H](CC(C)C)C(=O)N[C@@H](CO)C(=O)N[C@H](C(=O)O)[C@@H](C)O [Example 33, N^ε24-[(4S)-4-[[(4S)-4-[[(4S)-4-[[(4S)-4-amino-4-carboxybutanoyl]amino]-4-carboxybutanoyl]amino]-4-carboxybutanoyl]amino]-4-carboxybutanoyl]-[His3,Thr16,Lys24,Leu27,Ser28]-Glucagon] (H-HSHGTFTSDYSKYLDTRRAQDFVK([γGlu-γGlu-γGlu-γGlu])WLLST-OH) | 8

Other lines, results leading:

Row | EC50 [pM] | Compound
4 | 2.3 | CC(=O)N[C@@H](CCC(=O)N[C@@H](CCC(=O)N[C@@H](CCC(=O)N[C@@H](CCC(=O)NCCCC[C@H](NC(=O)[C@@H](NC(=O)[C@H](Cc1ccccc1)NC(=O)[C@H](CC(=O)O)NC(=O)[C@H](CCC(N)=O)NC(=O)[C@H](C)NC(=O)[C@H](CCCNC(=N)N)NC(=O)[C@H](CCCNC(=N)N)NC(=O)[C@H](Cc1c[nH]c2ccccc12)NC(=O)[C@H](CC(=O)O)NC(=O)[C@H](CC(C)C)NC(=O)[C@H](Cc1ccc(O)cc1)NC(=O)[C@H](CCCCN)NC(=O)[C@H](CO)NC(=O)[C@H](Cc1ccc(O)cc1)NC(=O)[C@H](CC(=O)O)NC(=O)[C@H](CO)NC(=O)[C@@H](NC(=O)[C@H](Cc1ccccc1)NC(=O)[C@@H](NC(=O)CNC(=O)[C@H](CCC(N)=O)NC(=O)[C@H](CO)NC(=O)[C@@H](N)Cc1c[nH]cn1)[C@@H](C)O)[C@@H](C)O)C(C)C)C(=O)N[C@@H](Cc1c[nH]c2ccccc12)C(=O)N[C@@H](CC(C)C)C(=O)N[C@@H](CC(C)C)C(=O)N[C@@H](CO)C(=O)N[C@H](C(=O)O)[C@@H](C)O)C(=O)O)C(=O)O)C(=O)O)C(=O)O [Example 34]
5 | 2.8 | CC(=O)N[C@@H](CCC(=O)N[C@@H](CCC(=O)N[C@@H](CCC(=O)N[C@@H](CCC(=O)NCCCC[C@H](NC(=O)[C@@H](NC(=O)[C@H](Cc1ccccc1)NC(=O)[C@H](CC(=O)O)NC(=O)[C@H](CCC(N)=O)NC(=O)[C@H](C)NC(=O)[C@H](CCCNC(=N)N)NC(=O)[C@H](CCCNC(=N)N)NC(=O)[C@H](Cc1ccccc1)NC(=O)[C@H](CC(=O)O)NC(=O)[C@H](CC(C)C)NC(=O)[C@H](Cc1ccc(O)cc1)NC(=O)[C@H](CCCCN)NC(=O)[C@H](CO)NC(=O)[C@H](Cc1ccc(O)cc1)NC(=O)[C@H](CC(=O)O)NC(=O)[C@H](CO)NC(=O)[C@@H](NC(=O)[C@H](Cc1ccccc1)NC(=O)[C@@H](NC(=O)CNC(=O)[C@H](CCC(N)=O)NC(=O)[C@H](CO)NC(=O)[C@@H](N)Cc1c[nH]cn1)[C@@H](C)O)[C@@H](C)O)C(C)C)C(=O)N[C@@H](Cc1c[nH]c2ccccc12)C(=O)N[C@@H](CC(C)C)C(=O)N[C@@H](CC(C)C)C(=O)N[C@@H](CO)C(=O)N[C@H](C(=O)O)[C@@H](C)O)C(=O)O)C(=O)O)C(=O)O)C(=O)O [Example 35]
6 | 2.5 | CC[C@H](C)[C@H](NC(=O)[C@H](CC(=O)O)NC(=O)[C@H](CC(C)C)NC(=O)[C@H](Cc1ccc(O)cc1)NC(=O)[C@H](CCCCN)NC(=O)[C@H](CO)NC(=O)[C@H](Cc1ccc(O)cc1)NC(=O)[C@H](CC(=O)O)NC(=O)[C@H](CO)NC(=O)[C@@H](NC(=O)[C@H](Cc1ccccc1)NC(=O)[C@@H](NC(=O)CNC(=O)[C@H](CCC(N)=O)NC(=O)[C@H](CO)NC(=O)[C@@H](N)Cc1c[nH]cn1)[C@@H](C)O)[C@@H](C)O)C(=O)N[C@@H](CCCNC(=N)N)C(=O)N[C@@H](CCCNC(=N)N)C(=O)N[C@@H](C)C(=O)N[C@@H](CCC(N)=O)C(=O)N[C@@H](CC(=O)O)C(=O)N[C@@H](Cc1ccccc1)C(=O)N[C@H](C(=O)N[C@@H](CCCCNC(=O)CC[C@H](NC(=O)CC[C@H](NC(=O)CC[C@H](NC(=O)CC[C@H](NC(C)=O)C(=O)O)C(=O)O)C(=O)O)C(=O)O)C(=O)N[C@@H](Cc1c[nH]c2ccccc12)C(=O)N[C@@H](CC(C)C)C(=O)N[C@@H](CC(C)C)C(=O)N[C@@H](CO)C(=O)N[C@H](C(=O)O)[C@@H](C)O)C(C)C [Example 36, N^ε24-[(4S)-4-[[(4S)-4-[[(4S)-4-[[(4S)-4-acetamido-4-carboxybutanoyl]amino]-4-carboxybutanoyl]amino]-4-carbox[…]ybutanoyl]amino]-4-carboxybutanoyl]-[Ile16,Lys24,Leu27,Ser28]-Glucagon]
7 | 3 | CC(=O)N[C@@H](CCC(=O)N[C@@H](CCC(=O)N[C@@H](CCC(=O)N[C@@H](CCC(=O)NCCCC[C@H](NC(=O)[C@@H](NC(=O)[C@H](Cc1ccccc1)NC(=O)[C@H](CC(=O)O)NC(=O)[C@H](CCC(N)=O)NC(=O)[C@H](C)NC(=O)[C@H](CCCNC(=N)N)NC(=O)[C@H](CCCNC(=N)N)NC(=O)[C@H](Cc1ccc(O)cc1)NC(=O)[C@H](CC(=O)O)NC(=O)[C@H](CC(C)C)NC(=O)[C@H](Cc1ccc(O)cc1)NC(=O)[C@H](CCCCN)NC(=O)[C@H](CO)NC(=O)[C@H](Cc1ccc(O)cc1)NC(=O)[C@H](CC(=O)O)NC(=O)[C@H](CO)NC(=O)[C@@H](NC(=O)[C@H](Cc1ccccc1)NC(=O)[C@@H](NC(=O)CNC(=O)[C@H](CCC(N)=O)NC(=O)[C@H](CO)NC(=O)[C@@H](N)Cc1c[nH]cn1)[C@@H](C)O)[C@@H](C)O)C(C)C)C(=O)N[C@@H](Cc1c[nH]c2ccccc12)C(=O)N[C@@H](CC(C)C)C(=O)N[C@@H](CC(C)C)C(=O)N[C@@H](CO)C(=O)N[C@H](C(=O)O)[C@@H](C)O)C(=O)O)C(=O)O)C(=O)O)C(=O)O [Example 37, N^ε24-[(4S)-4-[[(4S)-4-[[(4S)-4-[[(4S)-4-acetamido-4-carboxybutanoyl]amino]-4-carboxybutanoyl]amino]-4-carbox[…]ybutanoyl]amino]-4-carboxybutanoyl]-[Tyr16,Lys24,Leu27,Ser28]-Glucagon]
